{"source": "patent US20220401374A1", "about": "“COMPOSITIONS AND METHODS FOR CANCER TREATMENT BY ENHANCING ANTITUMOR IMMUNITY USING TANNIC ACID-BASED NANOCAPSULES” (Purdue Research Foundation, priority 2019, published 2022)", "key": {"[1]": {"tested_on": "B16F10 cells", "experiment": "Cytotoxicity by MTT assay in B16F10 cells", "type": "cell-based, murine", "conditions": "24 h total", "procedure": "Bolus-pulse: Cells were incubated with CFZ-DMSO at different CFZ concentrations for 2.4 h then washed and incubated in drug-free medium for additional 21.6 h making the total incubation time of 24 h. Low-extended: Cells were incubated with at 1/10th CFZ concentrations for 24 h. Cell viability was measured by the MTT assay at the end of 24 h. % cell viability was calculated by normalizing to the viability of control cells treated with the equivalent amount of vehicle for the same period of time.\nB16F10 (derived from murine melanoma; ATCC, Manassas, Va., USA) or HCC-1937 (derived from human triple negative breast cancer; ATCC, Manassas, Va., USA) were grown in RPMI 1640 or DMEM medium, respectively, supplemented with 10% FBS and penicillin (100 IU/mL) and streptomycin (100 μg/mL). Cells were seeded in a 96 well plate at a density of 4,000 cells per well. After 24 h incubation, the culture medium was replaced with fresh medium containing CFZ (as a stock solution in DMSO), CFZ-pTA or CFZ-pTA-alb. […] The stop/solubilizing solution was added to dissolve formazan crystals, and the absorbance was read at the wavelength of 562 nm by the SpectraMax M3 microplate reader."}, "[2]": {"tested_on": "splenocytes from C57BL/6 mice", "experiment": "Cytotoxicity of CFZ on splenocytes, bolus-pulse vs low-extended", "type": "cell-based", "conditions": "24 h total", "experimental": "To estimate whether the sustained supply of CFZ is beneficial to sparing immune cells in the tumor microenvironment, we tested the cytotoxic effect of CFZ on splenocytes in two treatment regimens (FIG. 3A): a pulse treatment of bolus dose (bolus-pulse) and an extended treatment of low dose (low-extended), where bolus-pulse indicates incubation of cells in different CFZ concentrations for 2.4 h followed by washout and incubation in drug-free medium for additional 21.6 h making the total incubation time of 24 h, and low-extended indicates incubating cells in 1/10th CFZ concentrations for 24 h. The bolus-pulse regimen represents unformulated CFZ that is immediately available to the tumor upon intratumoral injection but rapidly diffuses to the circulation, whereas the low-extended regimen mimics the sustained release of CFZ from CFZ-pTA-alb over a prolonged period of time. Splenocytes freshly harvested from C57BL/6 mice were used as a surrogate for immune cells, as the spleen is the largest secondary lymphoid organ containing 25% of total lymphocytes^34, where B cells and T cells constitute 45-50% and 30-35%, respectively^35.\nThe cytotoxicity of CFZ was also measured on splenocytes. […] Cell viability was measured as described above."}, "[3]": {"tested_on": "BMDCs", "experiment": "BMDC activation after coculture with pretreated B16F10 cells (CD40, CD86)", "type": "cell-based, C57BL/6 mice", "conditions": "B16F10 pretreated 24 h, 200 nM CFZ-equivalent", "experimental": "Bone marrow cells were collected from healthy male C57BL/6 as reported previously^71. Mice at the age of 6-8 weeks were sacrificed using CO2 asphyxiation. Using a syringe, the cavities of femur bones were flushed with RPMI 1640 medium containing penicillin/streptomycin. The collected bone marrow was pipetted several times and passed through a 40 μm cell strainer to obtain single cell suspension. The cells were collected by centrifugation at 500 rcf for 8 min, treated with ACK buffer, rinsed, and suspended in IMDM medium supplemented with 10% FBS, penicillin/streptomycin, 20 ng/mL GM-CSF, and 10 mM β-mercaptoethanol at a density of 2×10^6 cells per 10 mL to differentiate into dendritic cells (DCs). Additional medium was supplemented three days later, and the floating and loosely adherent cells were collected by centrifugation on day 6. The DC phenotype was confirmed by CD11c staining. […] The stained cells were analyzed by flow cytometry (Accuri C6, BD Biosciences, San Jose, Calif., USA). Fluorescence-minus-one (FMO) controls were used for compensation and gating. The extent of phagocytosis was expressed as the percentage of DiI^+CD11c^+ cells per total CD11c^+ cells. The DC activation was assessed by CD11c^+CD40^+ or CD11c^+CD86^+ per total CD11c^+ cells."}, "[4]": {"tested_on": "BMDCs", "experiment": "Phagocytosis of pretreated DiI-labeled B16F10 cells by BMDCs", "type": "cell-based, C57BL/6 mice"}, "[5]": {"tested_on": "plasma protein", "conditions": "cited from earlier work"}}, "data": [{"molecule": "CC(C)C[C@H](NC(=O)[C@H](CCc1ccccc1)NC(=O)CN1CCOCC1)C(=O)N[C@@H](Cc1ccccc1)C(=O)N[C@@H](CC(C)C)C(=O)[C@@]1(C)CO1", "note": "[CFZ, Carfilzomib]", "values": [{"measurement": "sensitivity to bolus-pulse vs low-extended regimen", "setting": "[1]", "result": "equally sensitive to the two regimens"}, {"measurement": "sensitivity to bolus-pulse vs low-extended regimen", "setting": "[2]", "result": "less sensitive to the low-extended regimen than to the bolus-pulse regimen"}, {"measurement": "CD40 expression on CD11c+ BMDCs", "setting": "[3]", "result": "increased the expression of the two activation markers"}, {"measurement": "CD86 expression on CD11c+ BMDCs", "setting": "[3]", "result": "increased the expression of the two activation markers"}, {"measurement": "BMDC uptake of DiI+ B16F10 cells vs untreated B16F10 cells", "setting": "[4]; 10 μM CFZ equivalent pretreatment 24 h, coculture 4 or 24 h", "result": "greater extents of DiI^+CD11c^+ cells per total CD11c^+ cells"}, {"measurement": "BMDC uptake of pretreated B16F10 cells at 4° C.", "setting": "[4]; 4° C.", "result": "diminished"}, {"measurement": "BMDC uptake of DiI+ cells/fragments by confocal microscopy", "setting": "[4]; Pearson's correlation coefficient of signal colocalization", "result": "increased"}, {"measurement": "plasma protein binding", "setting": "[5]", "result": "97.6-98.2%"}]}]}
